Values joined by “and” are separate entries in the source; they are usually repeats but may differ in a detail not shown here. Identical values can stand only once. Like-named read-outs stand apart in the source and are kept apart here.
Assays:
Assay type in all cases: in vivo
[1] = tested on: Lamium purpureum (purple deadnettle); test: Greenhouse postemergence herbicidal effect on LAMPU
Source text: (§1) Seeds of the desired test plant species were planted in a 90:10% v/v (volume/volume) mixture of PRO-MIX® BX (Premier Tech Horticulture, Quakertown, Pa., USA) and PROFILE® GREENS GRADE™ (Profile Products LLC, Buffalo Grove, Ill., USA) planting mixture, which typically has a pH of 5.2 to 6.2 and an organic matter content of at least 50 percent, in plastic pots with a surface area of 103.2 square centimeters (cm^2). In some aspects, to help ensure good germination and healthy plants, a fungicide treatment and/or other chemical or physical treatment was applied. The plants were grown for 7-36 days (d) in a greenhouse with an approximate 14-hour (h) photoperiod which was maintained at about 23° C. during the day and 22° C. during the night. Nutrients and water were added on a regular basis and supplemental lighting was provided with overhead metal halide 1000-Watt lamps as necessary. The plants were employed for testing when they reached the second or third true leaf stage.
(§2) Emulsifiable concentrates of each of each pyridine carboxylate herbicide (Compound A or Compound B) were prepared at 100 grams acid equivalent per liter (g ae/L). The emulsifiable concentrates also included a safener, cloquintocet-mexyl, at 120 grams active ingredient per liter (g ai/L). […]
(§3) The treated plants and control plants were placed in a greenhouse as described above and watered by sub-irrigation to prevent wash-off of the test compounds. After 20-22 d, the condition of the test plants as compared with that of the control plants was determined visually and scored on a scale of 0 to 100 percent where 0 corresponds to no injury and 100 corresponds to complete kill.

[2] = tested on: Rumex obtusifolia (broadleaf dock); test: Greenhouse postemergence herbicidal effect on RUMOB; conditions: Ethephon 0 g/ha
Source text: as §1, §2
(§4) The treated plants and control plants were placed in a greenhouse as described above and watered by sub-irrigation to prevent wash-off of the test compounds. After 20-22 d, the condition of the test plants as compared with that of the control plants was determined visually and scored on a scale of 0 to 100 percent where 0 corresponds to no injury and 100 corresponds to complete kill. […]

[3] = tested on: Setaria faberi (giant foxtail); test: Greenhouse postemergence herbicidal effect on SETFA; conditions: for Herbicidal Effects (% visual injury) SETFA Obs: Ethephon 0 g/ha
Source text: as §1
(§5) Emulsifiable concentrates of each of each pyridine carboxylate herbicide (Compound A or Compound B) were prepared at 100 grams acid equivalent per liter (g ae/L). The emulsifiable concentrates also included a safener, cloquintocet-mexyl, at 120 grams active ingredient per liter (g ai/L). An aliquot of each emulsifiable concentrate was placed in a 25 mL glass vial and diluted with an aqueous mixture of 1.25% (v/v) ACTIROB® B esterified rapeseed oil (Bayer Crop Science, Research Triangle Park, N.C., USA) or MSO® Concentrate with LECI-TECH® methylated soybean oil (Loveland Products, Loveland, Colo., USA) to obtain concentrated stock solutions at the highest application rate for each herbicide, based upon a 12 milliliter (mL) application volume at a rate of 187 liters per hectare (L/ha). The concentrated stock solutions were further diluted with an aqueous mixture of 1.25% v/v ACTIROB® B or MSO® Concentrate with LECI-TECH® to obtain stock solutions at reduced application rates for each herbicide. Spray solutions of the herbicide combinations (Compound A or Compound B plus the PGR) were prepared by adding weighed amounts or aliquots of the PGR to the stock solutions of Compound A or Compound B to form 12-mL spray solutions in two-way combinations.
(§6) The spray solutions were applied to the plant material with an overhead Mandel track sprayer equipped with 8002E nozzles calibrated to deliver 187 L/ha over an application area of 0.503 square meters (m^2) at a spray height of 18 inches (43 centimeters (cm)) above the average plant canopy. Control plants were sprayed in the same manner with the solvent blank. All pyridine carboxylate herbicide (component a) application rates are given as “g ae/ha” and all PGR (component b) application rates are given as “g ai/ha.”
as §3

[4] = tested on: Matricaria chamomilla (wild chamomile); test: Greenhouse postemergence herbicidal effect on MATCH
Source text: as §1, §2, §3

rice (ORYSA) = conditions: Ethephon 0 g/ha
Source text: as §1, §2, §4

[5] = tested on: Viola arvensis (field violet); test: Greenhouse postemergence herbicidal effect on VIOAR
Source text: as §1, §2, §3

Zea mays (maize) = conditions: for Herbicidal Effects (% visual injury) ZEAMX Obs: Ethephon 0 g/ha
Source text: as §1, §5, §6, §3

[6] = tested on: Sorghum vulgare (grain sorghum); conditions: for Herbicidal Effects (% visual injury) SORVU Obs: Ethephon 0 g/ha
Source text: as §1, §5, §6, §3

[7] = tested on: Hordeum vulgare (winter barley)
Source text: as §1, §5, §6, §3

[8] = tested on: Triticum aestivum (winter wheat)
Source text: as §1, §5, §6, §3

[9] = tested on: Triticum aestivum (spring wheat)
Source text: as §1, §5, §6, §3

[10] = tested on: Hordeum vulgare (spring barley)
Source text: as §1, §5, §6, §3

[11] = tested on: Papaver rhoeas (herbicide-resistant poppy); test: Greenhouse postemergence herbicidal effect on PAPRH-RES
Source text: as §1, §2, §3

[12] = tested on: Capsella bursa-pastoris (shepherd's purse); test: Greenhouse postemergence herbicidal effect on CAPBP
Source text: as §1, §2, §3

[13] = tested on: Stellaria media (chickweed); test: Greenhouse postemergence herbicidal effect on STEME; conditions: for Herbicidal Effects (% visual injury) STEME Obs: Ethephon 0 g/ha
Source text: as §1, §5, §6, §3

Glycine max (soybean) = test: Greenhouse postemergence herbicidal effect on GLXMA
Source text: as §1, §5, §6, §3

[14] = tested on: Anthemis arvensis (corn chamomile); test: Greenhouse postemergence herbicidal effect on ANTAR
Source text: as §1, §2, §3

With N#CCOC(=O)c1nc(-c2ccc3cc[nH]c3c2F)c(F)c(N)c1Cl [Compound A, cyanomethyl 4-amino-3-chloro-5-fluoro-6-(7-fluoro-1H-indol-6-yl)pyridine-2-carboxylate] the “% visual injury Obs” value ([1]; herbicide 7.5 g ae/ha alone) was 68%, the “% visual injury Obs” value ([1]; herbicide 10 g ae/ha alone) was 73% and the “% visual injury Obs” value ([1]; herbicide 15 g ae/ha alone) was 73%. The “Herbicidal Effects (% visual injury) RUMOB Obs” value ([2]; Compound A 7.5 g/ha) was 8%, the “Herbicidal Effects (% visual injury) RUMOB Obs” value ([2]; Compound A 10 g/ha) was 18% and the “Herbicidal Effects (% visual injury) SETFA Obs” value ([3]; Compound A 7.5 g/ha) was 55%. For the same compound, the “Herbicidal Effects (% visual injury) SETFA Obs” value ([3]; Compound A 10 g/ha) was 70%, the “% visual injury Obs” value ([3]; herbicide 7.5 g ae/ha alone) was 78% and the “% visual injury Obs” value ([3]; herbicide 10 g ae/ha alone) was 80%. The “% visual injury Obs” value ([4]; herbicide 7.5 g ae/ha alone) was 23%, the “% visual injury Obs” value ([4]; herbicide 10 g ae/ha alone) was 35% and the “% visual injury Obs” value ([4]; herbicide 15 g ae/ha alone) was 45%. The “Herbicidal Effects (% visual injury) ORYSA Obs” value (rice (ORYSA); Compound A 7.5 g/ha) was 15%, the “Herbicidal Effects (% visual injury) ORYSA Obs” value (rice (ORYSA); Compound A 10 g/ha) was 18% and the “% visual injury Obs” value ([5]; herbicide 7.5 g ae/ha alone) was 10%. The “% visual injury Obs” value ([5]; herbicide 10 g ae/ha alone) was 13%, the “% visual injury Obs” value ([5]; herbicide 15 g ae/ha alone) was 10% and the “Herbicidal Effects (% visual injury) ZEAMX Obs” value (Zea mays (maize); Compound A 7.5 g/ha) was 0%. For the same compound, the “Herbicidal Effects (% visual injury) ZEAMX Obs” value (Zea mays (maize); Compound A 10 g/ha) was 5%, the “% visual injury Obs” value (Zea mays (maize); herbicide 7.5 g ae/ha alone) was 0% and the “% visual injury Obs” value (Zea mays (maize); herbicide 10 g ae/ha alone) was 0%. For the same compound, the “Herbicidal Effects (% visual injury) SORVU Obs” value ([6]; Compound A 7.5 g/ha) was 8%, the “Herbicidal Effects (% visual injury) SORVU Obs” value ([6]; Compound A 10 g/ha) was 8% and the “% visual injury Obs” value ([6]; herbicide 7.5 g ae/ha alone) was 0%. The “% visual injury Obs” value ([6]; herbicide 10 g ae/ha alone) was 0%, the “% visual injury Obs” value ([7]; herbicide 7.5 g ae/ha alone) was 0% and the “% visual injury Obs” value ([7]; herbicide 10 g ae/ha alone) was 0%. The “% visual injury Obs” value ([7]; herbicide 15 g ae/ha alone) was 0%, the “% visual injury Obs” value ([8]; herbicide 7.5 g ae/ha alone) was 0% and the “% visual injury Obs” value ([8]; herbicide 10 g ae/ha alone) was 0%. For the same compound, the “% visual injury Obs” value ([8]; herbicide 15 g ae/ha alone) was 0%, the “% visual injury Obs” value ([9]; herbicide 7.5 g ae/ha alone) was 0% and 5% and the “% visual injury Obs” value ([9]; herbicide 10 g ae/ha alone) was 0% and 3%. The “% visual injury Obs” value ([9]; herbicide 15 g ae/ha alone) was 0%, the “% visual injury Obs” value ([10]; herbicide 7.5 g ae/ha alone) was 0% and the “% visual injury Obs” value ([10]; herbicide 10 g ae/ha alone) was 0%. The “% visual injury Obs” value ([10]; herbicide 15 g ae/ha alone) was 0%, the “% visual injury Obs” value ([11]; herbicide 7.5 g ae/ha alone) was 96% and the “% visual injury Obs” value ([11]; herbicide 10 g ae/ha alone) was 98%. For the same compound, the “% visual injury Obs” value ([11]; herbicide 15 g ae/ha alone) was 100%, the “% visual injury Obs” value ([12]; herbicide 7.5 g ae/ha alone) was 45% and the “% visual injury Obs” value ([12]; herbicide 10 g ae/ha alone) was 55%. The “% visual injury Obs” value ([12]; herbicide 15 g ae/ha alone) was 55%, the “Herbicidal Effects (% visual injury) STEME Obs” value ([13]; Compound A 7.5 g/ha) was 100% and the “Herbicidal Effects (% visual injury) STEME Obs” value ([13]; Compound A 10 g/ha) was 100%. The “% visual injury Obs” value ([13]; herbicide 7.5 g ae/ha alone) was 89% and 85%, the “% visual injury Obs” value ([13]; herbicide 10 g ae/ha alone) was 90% and 88% and the “% visual injury Obs” value ([13]; herbicide 15 g ae/ha alone) was 89%. The “% visual injury Obs” value (Glycine max (soybean); herbicide 7.5 g ae/ha alone) was 100% and 80%, the “% visual injury Obs” value (Glycine max (soybean); herbicide 10 g ae/ha alone) was 99% and 90% and the “% visual injury Obs” value ([14]; herbicide 7.5 g ae/ha alone) was 68%. For the same compound, the “% visual injury Obs” value ([14]; herbicide 10 g ae/ha alone) was 70% and the “% visual injury Obs” value ([14]; herbicide 15 g ae/ha alone) was 88%.

— patent US20210392890A1, “COMPOSITIONS COMPRISING PYRIDINE CARBOXYLATE HERBICIDES AND PLANT GROWTH REGULATORS” (Corteva Agriscience LLC, priority 2018, published 2021)
